Test results published in US11630106B2, “Diagnostic test for distinguishing the smoking status of a subject” (PHILIP MORRIS PRODUCTS S.A., priority 2017, dated 2023).
Like-named read-outs stand apart in the source and are kept apart here. Each block holds one compound with its values, some of them ahead of it.

How the values were obtained:
[1] = cited from earlier work
[2] = mice; cited from earlier work
[3] = 24-hour urine, cited from earlier work
[4] = cited from earlier work; remark: listed apart in the source
[5] = Randomized, controlled, open-label, 3-arm study (CC, SA, SW): total NNAL, CEMA and free cotinine measured in urine; type: in vivo, human; conditions: for Free Cotinine (ng/mL) SA: SA arm; for concentration at 2 day: human, inhaled
Source text: The study included healthy smokers switching to a heat-not-burn (smoke-free alternative (SW)) product or those observing smoking abstinence (SA), compared with continuing to use CC, for 5 days in confinement and prolonged by 85 days in an ambulatory setting. This was an ad libitum smoking study. Baseline measurements are taken by allowing the subject to smoke their chosen brand of conventional cigarette for 2 days. After this 2 day period, the subject is then elected to continue smoking conventional cigarettes, to switch to a smoke-free alternative or to abstain from smoking. The investigational period then begins. Methods for measuring each of the metabolites are described in Haziza et al. (2017) Data in Brief 10, 283-293.
During the confinement period, compliance to product/regimen allocation (exclusive use of smoke-free alternative and CC in SW and CC arms, respectively, and full abstinence from smoking in the SA arm) was ensured by strict distribution of each tobacco stick/CC when requested by the subject. During the ambulatory period, the subjects randomized to the SW arm were instructed to exclusively use HNB products and subjects randomized to the SA arm were instructed to abstain from smoking.
Furthermore, the data are represented as boxplots in the figures below. The bottom of the box is the first quartile (value below which 25% of the observations lie), the top is the third quartile (value below which 75% of the observations lie) and the middle bar is the median of the observations. The whiskers extend to the minimum observed value and maximum observe value respectively.

[6] = cited from earlier work; remark: listed apart in the source
[7] = cited from earlier work; for levels of total NNAL: smoking cessation study
[8] = intravenous infusion of nicotine in abstinent adult smokers
[9] = consumers of conventional cigarettes
[10] = consumers of smoke-free alternatives
[11] = 15 CPD during 5-day confinement
[12] = 20 CPD during 5-day confinement

SMILES: CN1C(=O)[C@H](O)C[C@H]1c1cccnc1 (relative stereo) [trans-3′-hydroxycotinine]
- total clearance ([1]; in vivo): about 82 mL min-1
- half-life [1, 8]: 6.6 h
- share of the dose of nicotine accounted for by the metabolite [2]: 40-60%

SMILES: CC(=O)N[C@@H](CSCCC#N)C(=O)O [CEMA, 2-cyanoethylmercapturic acid]
- baseline CEMA, range [3, 9]: 83-115 ng/mg creatinine
- baseline CEMA, value in brackets [3, 9]: 98 ng/mg creatinine
- average increase at day 5 compared to baseline [3, 9]: 4.2%
- change at day 5 compared to baseline, range [3, 9]: −4% to 12%
- CEMA at day 5, range [3, 9]: 85-115 ng/mg creatinine
- CEMA at day 5, value in brackets [3, 9]: 99.5 ng/mg creatinine
- baseline CEMA, range [3, 10]: 85-112 ng/mg creatinine
- baseline CEMA, value in brackets [3, 10]: 98 ng/mg creatinine
- average decrease at day 5 compared to baseline [3, 10]: −86%
- change at day 5 compared to baseline, range [3, 10]: −87% to −85%
- CEMA at day 5, range [3, 10]: 11-15 ng/mg creatinine
- CEMA at day 5, value in brackets [3, 10]: 13 ng/mg creatinine
- baseline CEMA, range ([3]; smoking abstainers): 89-119 ng/mg creatinine
- baseline CEMA, value in brackets ([3]; smoking abstainers): 103 ng/mg creatinine
- average decrease at day 5 compared to baseline ([3]; smoking abstainers): −86%
- decrease at day 5 compared to baseline, range ([3]; smoking abstainers): −88 to −85%
- CEMA at day 5, range ([3]; smoking abstainers): 10-15 ng/mg creatinine
- CEMA at day 5, value in brackets ([3]; smoking abstainers): 12 ng/mg creatinine
- levels of urinary CEMA ([4]; 0 CPD during 5-day confinement): 38.3 μg/24 h
- levels of urinary CEMA ([4]; 5 CPD during 5-day confinement): 93.2 μg/24 h
- levels of urinary CEMA [4, 11]: 168.0 μg/24 h
- levels of urinary CEMA [4, 12]: 218.0 μg/24 h
- CEMA excreted (mean±SD) ([4]; non-smokers): 4.6 ± 35 µg/L
- CEMA excreted (second value, 'or') ([4]; non-smokers): 1.9 µg/L
- urinary excretion of CEMA, range ([4]; non-smokers): below 2 ng/mL
- CEMA excreted (mean±SD) ([4]; smokers): 187 ± 181 µg/L
- CEMA excreted (second value, 'or') ([4]; smokers): 184 µg/L
- urinary excretion of CEMA, range ([4]; smokers): 20 to 205 ng/mL
- lowering of CEMA levels in urine ([4]; smoking cessation studies of 5 to 8 days): 7- to 10 fold

- Free Cotinine (ng/mL) SA ([5]; Day 2, IQR, listed as cotinine): 339 to 959 ng/mL
- Free Cotinine (ng/mL) SA ([5]; Day 2, IQR, listed as free cotinine): 128 to 313 ng/mL
- concentration at 2 day ([5]; SW arm, Day 2, IQR, read-out: Free Cotinine (ng/mL) SW): 546 to 1160 ng/mL
- concentration at 2 day ([5]; day 2, read-out: cotinine levels in conventional cigarette smokers): 459 to 1350 ng/mL
SMILES: CN1C(=O)CC[C@H]1c1cccnc1 [Free Cotinine, cotinine]
- cotinine levels indicative of heavy smoker status ([6]; consuming more than 20 cigarettes a day): above 300 ng/mL
- cotinine levels indicative of no active smoking ([6]; in vivo): < 10 ng/mL
- cotinine levels in active smokers ([6]; saliva): ≥ 100 ng/mL
- detectability after smoking abstinence ([6]; urine, saliva or blood): no longer detectable in urine, saliva or blood after about two days of smoking abstinence
- cotinine levels in active smokers ([6]; urine): ≥ 500 ng/mL
- in vivo half-life ([1]; in vivo): about 20 hours
- total clearance ([1]; in vivo): 45 mL/min
- half-life [1, 8]: 17.5 h
- share of the dose of nicotine accounted for by the metabolite [2]: about 15%

SMILES: O=NN1CCC[C@H]1c1cccnc1 [NNN]
- detectability in the urine of non-smokers [7]: Neither NNAL nor NNN are in principle detectable

SMILES: CN(CCCC(O)c1cccnc1)N=O (stereo not shown) [Total NNAL, 4-(methylnitrosamino)-1-(3-pyridyl)-1-butanol]
- Total NNAL (pg/mL) SW ([5]; SW arm, Day 5, IQR): 17 to 41 pg/mL
- total NNAL levels in smoking abstainers ([5]; between day 5 and day 30): 2.5 to 46 pg/mL
- baseline total NNAL, range [3, 9]: 84-131 pg/mg creatinine
- baseline total NNAL, value in brackets [3, 9]: 105 pg/mg creatinine
- average increase at day 5 compared to baseline [3, 9]: 3.9%
- change at day 5 compared to baseline, range [3, 9]: −2.8% to 10.5%
- total NNAL at day 5, range [3, 9]: 85-133 pg/mg creatinine
- total NNAL at day 5, value in brackets [3, 9]: 107 pg/mg creatinine
- baseline total NNAL, range [3, 10]: 95-129 pg/mg creatinine
- baseline total NNAL, value in brackets [3, 10]: 111 pg/mg creatinine
- average decrease at day 5 compared to baseline [3, 10]: −54%
- change at day 5 compared to baseline, range [3, 10]: −57% to −51%
- total NNAL at day 5, range [3, 10]: 42-58 pg/mg creatinine
- total NNAL at day 5, value in brackets [3, 10]: 49 pg/mg creatinine
- baseline total NNAL, range ([3]; smoking abstainers): 94-150 pg/mg creatinine
- baseline total NNAL, value in brackets ([3]; smoking abstainers): 119 pg/mg creatinine
- average decrease at day 5 compared to baseline ([3]; smoking abstainers): −63.9%
- decrease at day 5 compared to baseline, range ([3]; smoking abstainers): −67 to −61%
- total NNAL at day 5, range ([3]; smoking abstainers): 31-54 pg/mg creatinine
- total NNAL at day 5, value in brackets ([3]; smoking abstainers): 41 pg/mg creatinine
- levels of urinary NNAL ([7]; 0 CPD during 5-day confinement): 311 ng/24 h
- levels of urinary NNAL ([7]; 5 CPD during 5-day confinement): 422 ng/24 h
- levels of urinary NNAL [7, 11]: 549 ng/24 h
- levels of urinary NNAL [7, 12]: 624 ng/24 h
- levels of total NNAL ([7]; after 28 days): 0.26 nmol/24 h
- levels of total NNAL ([7]; after 42 days): 0.2 nmol/24 h
- levels of total NNAL ([7]; baseline): 2.70 nmol/24 h
- levels of total NNAL ([7]; day 56): 0.13 nmol/24 h
- decrease of NNAL levels ([7]; smoking cessation/abstinence studies lasting 3 to 8 days): 3- to 4 fold
- detectability in the urine of non-smokers [7]: Neither NNAL nor NNN are in principle detectable
- urine levels in non-smokers using other tobacco or nicotine replacement products or exposed to second-hand smoke ([7]; urine): ~0.1 nmol
- half-life ([7]; usually measured in the urine, estimated): 17 h

SMILES: C[N+]1([O-])CCC[C@H]1c1cccnc1 (stereo partly shown) [nicotine-1′-N-oxide]
- share of the nicotine absorbed by smokers (minor metabolite) ([1]; in vivo): 4-7%

SMILES: CN1CCCC1c1cccnc1 (stereo not shown) [nicotine]
- half-life ([1]; in vivo, iv): 2.3 h
- share of the inhaled amount metabolized by the liver (first pass effect) ([1]; in vivo): 80-90%
- total clearance ([1]; in vivo): about 1200 mL min-1
